In brackets after ≈: the same amount, converted by molar mass.
Legend:
[1] = Drug level in rat serum at 100 mg/kg, iv after 0.5 hr; format: ADME, organism-based; parameters: dose 100 mg/kg, route intravenous; conditions: read-out: Drug uptake
[2] = Drug level in rat serum at 100 mg/kg, iv after 2 hrs; format: ADME, organism-based; parameters: dose 100 mg/kg, route intravenous; conditions: read-out: Drug uptake
Serum [3] = test: Drug level in Staphylococcus aureus infected Wistar rat pups serum at 15 mg/kg, ip; format: ADME, organism-based; parameters: dose 15 mg/kg, route intraperitoneal; conditions: in vivo
[4] = Drug level in rat serum at 30 mg/kg, sc after 1 hr; format: ADME, organism-based; parameters: dose 30 mg/kg, route subcutaneous; conditions: read-out: Drug uptake
Staphylococcus aureus = test: Antibacterial activity against methicillin-sensitive Staphylococcus aureus; format: functional
Serum [5] = test: Drug level in Staphylococcus aureus infected Wistar rat pups serum at 50 mg/kg, ip; format: ADME, organism-based; parameters: dose 50 mg/kg, route intraperitoneal; conditions: in vivo
Rattus norvegicus = test: Drug level in rat serum at 25 mg/kg, im; format: ADME, organism-based; parameters: dose 25 mg/kg, route intramuscular; conditions: in vivo

SMILES | concentration at 0.5 h [1] | concentration at 2 h [2] | Drug uptake (Serum [3]) | concentration at 1 h [4] | MBC (Staphylococcus aureus) | MIC (Staphylococcus aureus) | Drug uptake (Serum [5]) | Drug uptake (Rattus norvegicus)
CN[C@H](CC(C)C)C(=O)N[C@H]1C(=O)N[C@@H](CC(N)=O)C(=O)N[C@H]2C(=O)N[C@H]3C(=O)N[C@H](C(=O)N[C@H](C(=O)O)c4cc(O)cc(O)c4-c4cc3ccc4O)[C@H](O)c3ccc(c(Cl)c3)Oc3cc2cc(c3O[C@@H]2O[C@H](CO)[C@@H](O)[C@H](O)[C@H]2O[C@H]2C[C@](C)(N)[C@H](O)[C@H](C)O2)Oc2ccc(cc2Cl)[C@H]1O [VANCOMYCIN] | 180000 ng/mL | 45000 ng/mL | > 125 µg/mL | 36000 ng/mL | 0.25 µg/mL (≈ 0.173 µM) |  |  | 
Cc1onc(-c2ccccc2)c1C(=O)N[C@@H]1C(=O)N2[C@@H]1SC(C)(C)[C@@H]2C(=O)O [OXACILLIN] |  |  |  |  | 0.25 µg/mL (≈ 0.623 µM) | 0.125 µg/mL (≈ 0.311 µM) | > 125 µg/mL | 
CCOc1ccc2ccccc2c1C(=O)N[C@@H]1C(=O)N2[C@@H]1SC(C)(C)[C@@H]2C(=O)O [NAFCILLIN] |  |  |  |  |  |  |  | 20.6 µg/mL

Source: ChEMBL document CHEMBL1145469, “Lysostaphin in treatment of neonatal Staphylococcus aureus infection” (Antimicrob Agents Chemother, 2007)
